From patent US11041000B2, “Peptide inhibitors of interleukin-23 receptor and their use to treat inflammatory diseases” (priority 2019, dated 2021)
Numbered stars: 1 amine (or outer) side, 2 acyl side, 3 side chain; on linkers, the order of the positions; unused ones are H or OH. Bridge positions count the residues as written; N and C are the ends. Square brackets hold non-standard residues; d marks the D form. Peptide text beside a SMILES is read from it. Trp(7-OMe) = COc1cccc2c(C[C@H](N)C(=O)O)c[nH]c12; His(π-Bom) = N[C@@H](Cc1cncn1COCc1ccccc1)C(=O)O; Trp(7-Me) = Cc1cccc2c(C[C@H](N)C(=O)O)c[nH]c12; Abu(4-yl) = O=C([C@H](CC[*:3])N[*:1])[*:2]; 2Nal = N[C@@H](Cc1ccc2ccccc2c1)C(=O)O; AEF = NCCOc1ccc(C[C@H](N)C(=O)O)cc1; Cit = NC(=O)NCCC[C@H](N)C(=O)O; αMeL = CC(C)C[C@](C)(N)C(=O)O; Pen = CC(C)(S)[C@H](N)C(=O)O; αMeK = C[C@](N)(CCCCN)C(=O)O; Aib = CC(C)(N)C(=O)O; βAla = NCCC(=O)O

Assays:
[1] = target: IL-23R-expressing DB cells (Homo sapiens, UniProt Q5VWK5); assay: DB cells IL23R pSTAT3 cell assay (pStat3HTRF); assay type: cell-based; settings: DB cells stimulated with IL-23 0.5 nM, 30 minutes, phospho-STAT3 in cell lysates; read-out: pStat3 HTRF
Chain of IL-23R-expressing DB cells (Q5VWK5 24-629 limits assumed): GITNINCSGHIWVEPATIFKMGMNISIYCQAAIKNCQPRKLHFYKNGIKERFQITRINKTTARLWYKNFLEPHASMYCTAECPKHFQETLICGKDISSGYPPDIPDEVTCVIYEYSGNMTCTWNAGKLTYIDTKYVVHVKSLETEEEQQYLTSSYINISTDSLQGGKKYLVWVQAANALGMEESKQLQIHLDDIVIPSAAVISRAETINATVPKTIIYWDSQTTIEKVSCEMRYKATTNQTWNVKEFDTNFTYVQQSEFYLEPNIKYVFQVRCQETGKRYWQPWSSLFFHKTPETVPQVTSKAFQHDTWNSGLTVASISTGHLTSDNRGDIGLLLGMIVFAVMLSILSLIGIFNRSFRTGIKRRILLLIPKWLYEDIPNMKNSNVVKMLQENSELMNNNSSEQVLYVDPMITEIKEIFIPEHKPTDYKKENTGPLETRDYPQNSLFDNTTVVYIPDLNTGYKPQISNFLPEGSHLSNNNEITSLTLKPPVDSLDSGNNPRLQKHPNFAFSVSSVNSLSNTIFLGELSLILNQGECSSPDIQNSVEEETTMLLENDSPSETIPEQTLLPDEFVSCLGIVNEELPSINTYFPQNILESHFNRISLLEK
Description: Human ELISA indicates the IL23-IL23R competitive binding assay described below, Rat ELISA indicates the rat IL-23R competitive binding ELISA assay described below, and pStat3HTRF indicates the DB cells IL-23R pSTAT3 cell assay described below. The peptides depicted in Table E1 are cyclized via a disulfide bridge formed between two Pen residues in these peptides. The peptides depicted in Table E2 are cyclized via a thioether bond between the indicated amino acid residues. Table E2 provides an illustrative structure depicting thioether cyclization, which is indicated in the table by the term “cyclo,” with the cyclic region bracketed immediately following the term “cyclo.” For certain peptides, the residue Abu is present where indicated, whereas in other embodiments, e.g., those related to the non-cyclized form, the Abu may be referred to as a hSer(Cl) or homoSer residue. The petpides depicted in Table E3 are cyclized via a disulfide bridge formed between two Pen residues or a thioether bond between Abu and Cys.
IL-23 plays a central role in supporting and maintaining Th17 differentiation in vivo. This process is thought to be mediated primarily through the Signal Transducer and Activator of Transcription 3 (STAT3), with phosphorylation of STAT3 (to yield pSTAT3) leading to upregulation of RORC and pro-inflammatory IL-17. This cell assay examines the levels of pSTAT3 in IL-23R-expressing DB cells when stimulated with IL-23 in the presence of test compounds. Serial dilutions of test peptides and IL-23 (Humanzyme #HZ-1261) at a final concentration of 0.5 nM, were added to each well in a 96 well tissue culture plate (Corning #CLS3894). DB cells (ATCC #CRL-2289), cultured in RPMI-1640 medium (Thermo Scientific #11875093) supplemented with 10% FBS, were added at 5×10E5 cells/well and incubated for 30 minutes at 37° C. in a 5% CO2 humidified incubator. Changes in phospho-STAT3 levels in the cell lysates were detected using the Cisbio HTRF pSTAT3 (Tyr705) Cellular Assay Kit (Cisbio #62AT3PEH), according to manufacturer's Two Plate Assay protocol.

[2] = Stability in simulated intestinal fluid (SIF); assay type: in vitro ADME; settings: simulated intestinal fluid with pancreatin, pH 6.8, 37° C., matrix is 100 fold dilution of standard SIF concentration; for SIF t½: 20 μM; for half-life at 20 μM: read-out: SIF t½ (converted)
[3] = Stability in human fecal homogenate; assay type: in vitro ADME; settings: 20% fecal homogenate (supernatant), pH 6.8, 20% human fecal homogenate, anaerobic, 37° C., read-out: t½: Human Feces anaerobic (converted)
Experimental: (§1) Centrifuged the homogenate at 2800×g for 15 min. The supernatant is taken out and used for incubations. […] The final test compound concentration was 20 μM.

[4] = Stability in cynomolgus monkey fecal homogenate; assay type: in vitro ADME; settings: 20% fecal homogenate (supernatant), pH 6.8, 20% cynomolgus monkey fecal homogenate, anaerobic, 37° C., read-out: t½: Monkey Feces anaerobic (converted)
Experimental: as §1

Stability in rat plasma = assay type: in vitro ADME; settings: both sexes, SD rat plasma, EDTA, 37° C., read-out: t½: Rat Plasma EDTA (converted)

COc1cccc2c(C[C@@H]3NC(=O)[C@H]([C@@H](C)O)NC(=O)[C@H](CC(N)=O)NC(=O)[C@@H](NC(C)=O)C(C)(C)SSC(C)(C)[C@@H](C(=O)N[C@@H](Cc4ccc(OCCN)cc4)C(=O)N[C@@H](Cc4ccc5ccccc5c4)C(=O)N[C@@](C)(CCCCN)C(=O)N[C@@H](CCCCNC(C)=O)C(=O)N[C@@H](CC(N)=O)C(=O)N[C@H](CCCCN)C(N)=O)NC(=O)[C@H](CCCNC(N)=O)NC3=O)c[nH]c12 [compound 300] (Ac-[Pen]NT[Trp(7-OMe)][Cit][Pen][AEF][2Nal][αMeK]K(Ac)N[dK]-NH2; disulfide 1-6)
IC50 [1]: > 1000 nM | SIF t½ [2]: 24 h | half-life at 20 μM [3]: > 24 h | half-life at 20 μM [4]: > 24 h | half-life at 20 μM (Stability in rat plasma): > 24 h

CC(=O)NCCCC[C@H](NC(=O)[C@](C)(CCCCN)NC(=O)[C@H](Cc1ccc2ccccc2c1)NC(=O)[C@H](Cc1ccc(OCCN)cc1)NC(=O)[C@H]1NC(=O)[C@H](CCC(N)=O)NC(=O)[C@H](Cc2c[nH]c3c(C)cccc23)NC(=O)[C@H]([C@@H](C)O)NC(=O)[C@H](CC(N)=O)NC(=O)[C@@H](NC(C)=O)C(C)(C)SSC1(C)C)C(=O)N[C@@H](CC(N)=O)C(=O)NCCC(N)=O [compound 267]
IC50 [1]: 0.506 nM | half-life at 20 μM [3]: > 24 h | half-life at 20 μM (Stability in rat plasma): > 24 h

CC(=O)NCCCC[C@H](NC(=O)[C@](C)(CCCCN)NC(=O)[C@H](Cc1ccc2ccccc2c1)NC(=O)[C@H](Cc1ccc(OCCN)cc1)NC(=O)[C@H]1NC(=O)[C@H](CCC(N)=O)NC(=O)[C@H](Cc2c[nH]c3c(C)cccc23)NC(=O)[C@H]([C@@H](C)O)NC(=O)C(C)(C)NC(=O)[C@@H](NC(C)=O)C(C)(C)SSC1(C)C)C(=O)N[C@@H](CC(N)=O)C(=O)NCCC(N)=O [compound 240] (Ac-[Pen][Aib]T[Trp(7-Me)]Q[Pen][AEF][2Nal][αMeK]K(Ac)N[βAla]-NH2; disulfide 1-6)
IC50 [1]: 17.7 nM | half-life at 20 μM [2]: 7 h | half-life at 20 μM [3]: 4 h | half-life at 20 μM ([4]; cynomolgus monkey): 3 h | half-life at 20 μM (Stability in rat plasma): 8 h

CC(=O)NCCCC[C@H](NC(=O)[C@](C)(CCCCN)NC(=O)[C@H](Cc1ccc2ccccc2c1)NC(=O)[C@H](Cc1ccc(OCCN)cc1)NC(=O)[C@H]1NC(=O)[C@H](CCCCNC(=O)C(C)(C)N)NC(=O)[C@H](Cc2c[nH]c3c(C)cccc23)NC(=O)[C@H]([C@@H](C)O)NC(=O)[C@H](CC(N)=O)NC(=O)[C@@H](NC(C)=O)C(C)(C)SSC1(C)C)C(=O)N[C@@H](CC(N)=O)C(=O)N[C@H](CC(C)C)C(N)=O [compound 322]
IC50 [1]: 0.648 nM | SIF t½ [2]: 24 h | half-life at 20 μM [3]: > 24 h | half-life at 20 μM ([4]; cynomolgus monkey): > 24 h | half-life at 20 μM (Stability in rat plasma): > 24 h

CC(=O)NCCCC[C@H](NC(=O)[C@](C)(CCCCN)NC(=O)[C@H](Cc1ccc2ccccc2c1)NC(=O)[C@H](Cc1ccc(OCCN)cc1)NC(=O)[C@H]1NC(=O)[C@H](CCCCNC(=O)C2CCCCC2)NC(=O)[C@H](Cc2c[nH]c3c(C)cccc23)NC(=O)[C@H]([C@@H](C)O)NC(=O)[C@H](CC(N)=O)NC(=O)[C@@H](NC(C)=O)C(C)(C)SSC1(C)C)C(=O)N[C@@H](CC(N)=O)C(=O)N[C@H](CC(C)C)C(N)=O [compound 316]
IC50 [1]: 5.6 nM | SIF t½ [2]: 24 h | half-life at 20 μM [3]: > 24 h | half-life at 20 μM [4]: > 24 h | half-life at 20 μM (Stability in rat plasma): > 24 h

CC(=O)NCCCC[C@H](NC(=O)[C@](C)(CC(C)C)NC(=O)[C@H](Cc1ccc2ccccc2c1)NC(=O)[C@H](Cc1ccc(OCCN)cc1)NC(=O)[C@H]1NC(=O)[C@H](CCC(N)=O)NC(=O)[C@H](Cc2c[nH]c3c(C)cccc23)NC(=O)[C@H]([C@@H](C)O)NC(=O)[C@H](CC(N)=O)NC(=O)[C@@H](NC(C)=O)C(C)(C)SSC1(C)C)C(=O)N[C@@H](C(=O)NCCC(N)=O)[C@H](C)O [compound 218]
IC50 [1]: 11 nM | half-life at 20 μM [3]: > 24 h | half-life at 20 μM ([4]; cynomolgus monkey): > 24 h | half-life at 20 μM (Stability in rat plasma): 1 h

CC(=O)NCCCC[C@@H]1NC(=O)[C@H](Cc2c[nH]c3c(C)cccc23)NC(=O)[C@H]([C@@H](C)O)NC(=O)[C@H](CC(N)=O)NC(=O)[C@@H](NC(C)=O)C(C)(C)SSC(C)(C)[C@@H](C(=O)N[C@@H](Cc2cncn2COCc2ccccc2)C(=O)N[C@@H](Cc2ccc3ccccc3c2)C(=O)N[C@@](C)(CCCCN)C(=O)N[C@@H](CCCCNC(C)=O)C(=O)N[C@@H](CC(N)=O)C(=O)N[C@H](CC(C)C)C(N)=O)NC1=O [compound 291] (Ac-[Pen]NT[Trp(7-Me)]K(Ac)[Pen][His(π-Bom)][2Nal][αMeK]K(Ac)N[dL]-NH2; disulfide 1-6)
IC50 [1]: > 1000 nM | half-life at 20 μM [3]: > 24 h | half-life at 20 μM ([4]; cynomolgus monkey): > 24 h | half-life at 20 μM (Stability in rat plasma): > 24 h

CC(=O)NCCCC[C@@H]1NC(=O)[C@H](Cc2c[nH]c3c(C)cccc23)NC(=O)[C@H]([C@@H](C)O)NC(=O)[C@H](CCC(N)=O)NC(=O)[C@@H](NC(=O)[C@@H](CCCNC(=N)N)NC(C)=O)CCSC[C@@H](C(=O)N[C@@H](Cc2ccc(OCCN)cc2)C(=O)N[C@@H](Cc2ccc3ccccc3c2)C(=O)N[C@@](C)(CCCCN)C(=O)N[C@@H](CCCCNC(C)=O)C(=O)N[C@@H](CC(N)=O)C(=O)N[C@H](CC(C)C)C(N)=O)NC1=O [compound 325] (Ac-[dR][Abu(4-yl)]QT[Trp(7-Me)]K(Ac)C[AEF][2Nal][αMeK]K(Ac)N[dL]-NH2; thioether 2-7)
IC50 [1]: 4.45 nM | half-life at 20 μM [2]: 14 h | half-life at 20 μM [3]: > 24 h | half-life at 20 μM ([4]; cynomolgus monkey): 22 h | half-life at 20 μM (Stability in rat plasma): > 24 h

CC(=O)NCCCC[C@H](NC(=O)[C@](C)(CCCCN)NC(=O)[C@H](Cc1ccc2ccccc2c1)NC(=O)[C@H](Cc1ccc(OCCN)cc1)NC(=O)[C@H]1NC(=O)[C@H](CCC(N)=O)NC(=O)[C@H](Cc2c[nH]c3c(C)cccc23)NC(=O)[C@H]([C@@H](C)O)NC(=O)[C@H](CC(N)=O)NC(=O)[C@@H](NC(C)=O)C(C)(C)SSC1(C)C)C(=O)N[C@@H](CC(N)=O)C(=O)NCCC(N)=O [compound 202]
IC50 [1]: 1.1 nM | half-life at 20 μM [4]: 10 h

CC(=O)NCCCC[C@H](NC(=O)[C@](C)(CC(C)C)NC(=O)[C@H](Cc1ccc2ccccc2c1)NC(=O)[C@H](Cc1ccc(OCCN)cc1)NC(=O)[C@H]1NC(=O)[C@H](CCC(N)=O)NC(=O)[C@H](Cc2c[nH]c3c(C)cccc23)NC(=O)[C@H]([C@@H](C)O)NC(=O)[C@H](CC(N)=O)NC(=O)[C@@H](NC(C)=O)C(C)(C)SSC1(C)C)C(=O)N1CCC[C@H]1C(=O)NCCC(N)=O [compound 211]
IC50 [1]: 178 nM | half-life at 20 μM [3]: 10 h | half-life at 20 μM ([4]; cynomolgus monkey): > 24 h

CC(=O)NCCCC[C@H](NC(=O)[C@](C)(CC(C)C)NC(=O)[C@H](Cc1ccc2ccccc2c1)NC(=O)[C@H](Cc1ccc(OCCN)cc1)NC(=O)[C@H]1NC(=O)[C@H](CCCNC(N)=O)NC(=O)[C@H](Cc2c[nH]c3c(C)cccc23)NC(=O)[C@H]([C@@H](C)O)NC(=O)[C@H](CC(N)=O)NC(=O)[C@@H](NC(C)=O)C(C)(C)SSC1(C)C)C(=O)N[C@@H](CC(N)=O)C(=O)NCCC(N)=O [compound 227] (Ac-[Pen]NT[Trp(7-Me)][Cit][Pen][AEF][2Nal][αMeL]K(Ac)N[βAla]-NH2; disulfide 1-6)
IC50 [1]: 0.702 nM | half-life at 20 μM [3]: > 24 h | half-life at 20 μM ([4]; cynomolgus monkey): > 24 h

CC(=O)NCCCC[C@H](NC(=O)C1(NC(=O)[C@H](Cc2ccc3ccccc3c2)NC(=O)[C@H](Cc2ccc(OCCN)cc2)NC(=O)[C@H]2NC(=O)[C@H](CCC(N)=O)NC(=O)[C@H](Cc3c[nH]c4c(C)cccc34)NC(=O)[C@H]([C@@H](C)O)NC(=O)[C@H](CC(N)=O)NC(=O)[C@@H](NC(C)=O)C(C)(C)SSC2(C)C)CCNCC1)C(=O)N[C@@H](CC(N)=O)C(=O)NCCC(N)=O [compound 275]
IC50 [1]: 2.17 nM | half-life at 20 μM [3]: > 24 h | half-life at 20 μM ([4]; cynomolgus monkey): 8 h | half-life at 20 μM (Stability in rat plasma): > 24 h
